Measurements published in patent EP3521435A1, “A HIGH STRINGENCY SELECTION SYSTEM FOR PROTEIN EXPRESSION IN PROLINE-AUXOTROPHIC CELLS” (Bayer AG, priority 2018, dated 2019).

System: CHO-K1 cells
Assay: Batch fermentation in shake flasks of human IgG1 expressing stable cell populations (Poros A-HPLC titer, viable cell density, viability)
Type: cell-based, Chinese hamster
Conditions: pJF1576
Protocol: To efficiently test the impact of different procedures on improving selection stringency, experimental testing in stable cell populations was performed. As test molecules, enhanced green fluorescent protein (GFP) as well as a human IgG1 were chosen. CHO-K1 cells adapted to growth in suspension in defined medium were obtained from SAFC and cultivated in EX-CELL CD CHO Fusion medium (SAFC 14365C). Custom-made EX-CELL CD CHO Fusion medium without L-Proline (Pro) and without L-Ornithine (Orn) ("proline-free medium") was obtained from SAFC. The expression vector system was based on modified versions of "CET 1019 AS-puro-SceI" and "CET 1019 AD-puro-SceI" for GFP and human IgG1, respectively, from Merck-Millipore, containing the Puromycin selection marker (Puromycin N-acetyl-transferase) known to exert a high selection stringency. To minimize variations in cell populations derived from using different transfections or different vectors, the first series of experiments were conducted using vectors into which a P5CS expression cassette was cloned upstream of a UCOE element, in addition to the Puromycin selection marker present downstream of a gene of interest. This way, it was possible to pool different transfections using the same vector to obtain a common starting point, and split the mixture according to different selection conditions, minimizing any variations that are not due to selection conditions themselves. Expression of long and short isoform of murine P5CS (Protein: Delta-1-pyrroline-5-carboxylate synthase; Gene: Aldh18a1; UniProtKB accession number: Q9Z110-1 & Q9Z110-2) was driven by a SV40 promoter. A SV40 polyadenylation sequence was used at the 3' end of the gene. More details can be found in Table 1. Typically, CHO cells were cultivated in EX-CELL CD CHO Fusion medium containing 6 mM GlutaMAX (Thermo Fisher, 35050-38) ("CD-Fusion medium") at 37 °C with 5% CO2. Cells were grown to logarithmic phase under shaking conditions for transfections. 1e7 cells/cuvette were transfected using nucleofection (Amaxa Nucleofector II, following the manufacturer's recommendations) with 5 µg of linearized DNA. After transfection, cells were taken up in 1 ml medium and transferred into 1 well of a 6 well microtiter plate (MTP) already containing 1 ml medium. The cells were incubated for 24 h without shaking, after which 9 ml medium were added and cells were washed (either in standard or proline-free medium). Multiple transfections were pooled, if applicable. Cells were adjusted to 2e5 viable cells/ml and 10 ml were transferred to T-25 flasks. Reference cell populations were selected using 10 µg/ml Puromycin in CD-Fusion medium. For P5CS-based selection, EX-CELL CD CHO Fusion medium (custom-made, SAFC) containing 6 mM GlutaMAX without proline and without ornithine was used ("proline-free" or "CD-Fusion w/o Pro" medium), with or without additional selection pressure.
Cell viability of the different populations was monitored over time. As soon as cell populations appeared to recover from selection pressure, cells were transferred to Shake Flask or TubeSpins for expansion in suspension under shaking conditions. Subsequently, stable cell populations transfected with IgG were seeded at 2e5 viable cells/ml for batch fermentation without selection pressure (i.e. standard CD-Fusion medium containing proline and no other selective agents). The cells were cultivated for 5-10 days, viable cell densities and productivity were monitored over time. IgG titers were determined using Poros A-HPLC method. Typically, final batch titers were recorded at a time point at which majority of cultures had around 70% viability. Stable cell populations transfected with GFP vector were subjected to analysis by flow cytometry using Guava easyCyte 8HT Benchtop Flow Cytometer (Millipore). 250 µl of cell culture were transferred to 96 MTP and washed with PBS. Dead cells were excluded from analysis using propidium iodide (PI). […]

[1] = Day 2 after inoculation, selected in CD-Fusion w/o Pro + 0.05 mM DHP, non-selecting conditions
[2] = Day 2 after inoculation, selected in CD-Fusion w/o Pro + 0.1 mM DHP, non-selecting conditions
[3] = Day 2 after inoculation, selected in CD-Fusion w/o Pro + 0.2 mM DHP, non-selecting conditions
[4] = Day 2 after inoculation, selected in CD-Fusion w/o Pro + 0.4 mM DHP, non-selecting conditions
[5] = Day 3 after inoculation, selected in CD-Fusion w/o Pro + 0.05 mM DHP, selective conditions
[6] = Day 3 after inoculation, selected in CD-Fusion w/o Pro + 0.1 mM DHP, selective conditions
[7] = Day 3 after inoculation, selected in CD-Fusion w/o Pro + 0.2 mM DHP, selective conditions
[8] = Day 3 after inoculation, selected in CD-Fusion w/o Pro + 0.4 mM DHP, selective conditions
[9] = Day 4 after inoculation, selected in CD-Fusion w/o Pro + 0.05 mM DHP, non-selecting conditions
[10] = Day 4 after inoculation, selected in CD-Fusion w/o Pro + 0.1 mM DHP, non-selecting conditions
[11] = Day 4 after inoculation, selected in CD-Fusion w/o Pro + 0.2 mM DHP, non-selecting conditions
[12] = Day 4 after inoculation, selected in CD-Fusion w/o Pro + 0.4 mM DHP, non-selecting conditions
[13] = Day 5 after inoculation, selected in CD-Fusion w/o Pro + 0.05 mM DHP, selective conditions
[14] = Day 5 after inoculation, selected in CD-Fusion w/o Pro + 0.1 mM DHP, selective conditions
[15] = Day 5 after inoculation, selected in CD-Fusion w/o Pro + 0.2 mM DHP, selective conditions
[16] = Day 5 after inoculation, selected in CD-Fusion w/o Pro + 0.4 mM DHP, selective conditions
[17] = Day 7 after inoculation, selected in CD-Fusion w/o Pro + 0.05 mM DHP, non-selecting conditions
[18] = Day 7 after inoculation, selected in CD-Fusion w/o Pro + 0.05 mM DHP, selective conditions
[19] = Day 7 after inoculation, selected in CD-Fusion w/o Pro + 0.1 mM DHP, non-selecting conditions

Structure (SMILES): O=C(O)[C@@H]1C=CCN1 [DHP, 3,4-Dehydro-L-Proline]
- titer improvements (0.2 mM or 0.4 mM DHP as additional selection additives, human IgG1, non-selecting batch, #1 - #3 vs #6 & #7): 2-3 fold
- titer improvements as compared to Puromycin-based selections (DHP as additional selection agent in initial selections, human IgG1, batch under selective conditions): 2-3 fold
- Viability profile (Day 0 after inoculation, selected in CD-Fusion w/o Pro + 0.05 mM DHP, non-selecting conditions): 99.4%
- Viability profile (Day 0 after inoculation, selected in CD-Fusion w/o Pro + 0.05 mM DHP, selective conditions): 98.4%
- Viability profile (Day 0 after inoculation, selected in CD-Fusion w/o Pro + 0.1 mM DHP, non-selecting conditions): 99.0%
- Viability profile (Day 0 after inoculation, selected in CD-Fusion w/o Pro + 0.1 mM DHP, selective conditions): 97.5%
- Viability profile (Day 0 after inoculation, selected in CD-Fusion w/o Pro + 0.2 mM DHP, non-selecting conditions): 98.6%
- Viability profile (Day 0 after inoculation, selected in CD-Fusion w/o Pro + 0.2 mM DHP, selective conditions): 98.2%
- Viability profile (Day 0 after inoculation, selected in CD-Fusion w/o Pro + 0.4 mM DHP, non-selecting conditions): 96.3%
- Viability profile (Day 0 after inoculation, selected in CD-Fusion w/o Pro + 0.4 mM DHP, selective conditions): 99.7%
- Productivity profile (Day 2 after inoculation, human IgG1, selected in CD-Fusion w/o Pro + 0.05 mM DHP, non-selecting conditions): 9.8 mg/L
- Productivity profile (Day 2 after inoculation, human IgG1, selected in CD-Fusion w/o Pro + 0.05 mM DHP, selective conditions): 47.1 mg/L
- Productivity profile (Day 2 after inoculation, human IgG1, selected in CD-Fusion w/o Pro + 0.1 mM DHP, non-selecting conditions): 11.0 mg/L
- Productivity profile (Day 2 after inoculation, human IgG1, selected in CD-Fusion w/o Pro + 0.1 mM DHP, selective conditions): 37.5 mg/L
- Productivity profile (Day 2 after inoculation, human IgG1, selected in CD-Fusion w/o Pro + 0.2 mM DHP, non-selecting conditions): 11.3 mg/L
- Productivity profile (Day 2 after inoculation, human IgG1, selected in CD-Fusion w/o Pro + 0.2 mM DHP, selective conditions): 34.4 mg/L
- Productivity profile (Day 2 after inoculation, human IgG1, selected in CD-Fusion w/o Pro + 0.4 mM DHP, non-selecting conditions): 11.3 mg/L
- Productivity profile (Day 2 after inoculation, human IgG1, selected in CD-Fusion w/o Pro + 0.4 mM DHP, selective conditions): 39.4 mg/L
- Viability profile [1]: 98.9%
- Viable cell density profile [1]: 6,1E+05 VCD/ml
- Viability profile [2]: 99.3%
- Viable cell density profile [2]: 7,9E+05 VCD/ml
- Viability profile [3]: 99.2%
- Viable cell density profile [3]: 6,4E+05 VCD/ml
- Viability profile [4]: 99.3%
- Viable cell density profile [4]: 8,0E+05 VCD/ml
- Viability profile [5]: 99.3%
- Viable cell density profile [5]: 5.6E+06 VCD/ml
- Viability profile [6]: 99.4%
- Viable cell density profile [6]: 7.4E+06 VCD/ml
- Viability profile [7]: 99.1%
- Viable cell density profile [7]: 2.4E+06 VCD/ml
- Viability profile [8]: 99.3%
- Viable cell density profile [8]: 5.3E+06 VCD/ml
- Productivity profile (Day 4 after inoculation, human IgG1, selected in CD-Fusion w/o Pro + 0.05 mM DHP, non-selecting conditions): 24.2 mg/L
- Productivity profile (Day 4 after inoculation, human IgG1, selected in CD-Fusion w/o Pro + 0.05 mM DHP, selective conditions): 114.8 mg/L
- Productivity profile (Day 4 after inoculation, human IgG1, selected in CD-Fusion w/o Pro + 0.1 mM DHP, non-selecting conditions): 31.7 mg/L
- Productivity profile (Day 4 after inoculation, human IgG1, selected in CD-Fusion w/o Pro + 0.1 mM DHP, selective conditions): 83.8 mg/L
- Productivity profile (Day 4 after inoculation, human IgG1, selected in CD-Fusion w/o Pro + 0.2 mM DHP, non-selecting conditions): 34.6 mg/L
- Productivity profile (Day 4 after inoculation, human IgG1, selected in CD-Fusion w/o Pro + 0.2 mM DHP, selective conditions): 104.8 mg/L
- Productivity profile (Day 4 after inoculation, human IgG1, selected in CD-Fusion w/o Pro + 0.4 mM DHP, non-selecting conditions): 41.0 mg/L
- Productivity profile (Day 4 after inoculation, human IgG1, selected in CD-Fusion w/o Pro + 0.4 mM DHP, selective conditions): 105.5 mg/L
- Viability profile [9]: 99.8%
- Viable cell density profile [9]: 5,3E+06 VCD/ml
- Viability profile [10]: 99.7%
- Viable cell density profile [10]: 6,5E+06 VCD/ml
- Viability profile [11]: 99.5%
- Viable cell density profile [11]: 5,2E+06 VCD/ml
- Viability profile [12]: 99.6%
- Viable cell density profile [12]: 6,1E+06 VCD/ml
- Viability profile [13]: 96.4%
- Viable cell density profile [13]: 9.5E+06 VCD/ml
- Viability profile [14]: 97.5%
- Viable cell density profile [14]: 1.2E+07 VCD/ml
- Viability profile [15]: 98.9%
- Viable cell density profile [15]: 6.9E+06 VCD/ml
- Viability profile [16]: 96.1%
- Viable cell density profile [16]: 1.1E+07 VCD/ml
- Productivity profile (Day 7 after inoculation, human IgG1, selected in CD-Fusion w/o Pro + 0.05 mM DHP, non-selecting conditions): 48.6 mg/L
- Productivity profile (Day 7 after inoculation, human IgG1, selected in CD-Fusion w/o Pro + 0.05 mM DHP, selective conditions): 166.2 mg/L
- Productivity profile (Day 7 after inoculation, human IgG1, selected in CD-Fusion w/o Pro + 0.1 mM DHP, non-selecting conditions): 104.4 mg/L
- Productivity profile (Day 7 after inoculation, human IgG1, selected in CD-Fusion w/o Pro + 0.1 mM DHP, selective conditions): 125.8 mg/L
- Productivity profile (Day 7 after inoculation, human IgG1, selected in CD-Fusion w/o Pro + 0.2 mM DHP, non-selecting conditions): 87.4 mg/L
- Productivity profile (Day 7 after inoculation, human IgG1, selected in CD-Fusion w/o Pro + 0.2 mM DHP, selective conditions): 179.7 mg/L
- Productivity profile (Day 7 after inoculation, human IgG1, selected in CD-Fusion w/o Pro + 0.4 mM DHP, non-selecting conditions): 116.4 mg/L
- Productivity profile (Day 7 after inoculation, human IgG1, selected in CD-Fusion w/o Pro + 0.4 mM DHP, selective conditions): 133.4 mg/L
- Viability profile [17]: 98.6%
- Viable cell density profile [17]: 1,0E+07 VCD/ml
- Viability profile [18]: 45.3%
- Viable cell density profile [18]: 4.6E+06 VCD/ml
- Viability profile [19]: 95.6%
- Viable cell density profile [19]: 7,9E+06 VCD/ml
- Viability profile (Day 7 after inoculation, selected in CD-Fusion w/o Pro + 0.1 mM DHP, selective conditions): 32.2%
